Values after ≈ are worked out from the molar mass of the structure shown. Read-outs that look alike come from different tables or passages of the source.
Tests used:
[1] = test system: Treponema hyodysenteriae; test: Therapeutic efficacy of medicated feed in pigs experimentally infected with swine dysentery; format: in vivo, pigs (SPF LW)
Description: A premix containing 10% of carriomycin monosodium salt crystals as diluted with finely milled soybean meal was added to a feedstuff and pigs were allowed to take the feed as libitum. The feed was the proprietary pig starter mentioned in Example 2 without added antibiotics. The pigs were SPF LW and used in groups of 4 animals (2 male and 2 female.)
The pigs were infected as follows. Thus, Treponema hyodysenteriae was anaerobically grown on a 5% horse blood agar plate and the resultant culture was homogenized and admixed with 3% mucin-phosphate buffer. The mixture was directly administered into the stomach of each SPF pig. From each of the pigs showing typical symptoms of swine dysentery, the colon content and mucous membrane were taken and diluted two-fold with 3% mucin-phosphate buffer to obtain a final infective material. An 80 ml. portion of this preparation was directly infused into the stomach of each test pig, which was then put on the unmedicated feed for the initial six days. Beginning with the 7th day, each pig was put on the feed medicated with one of predetermined concentrations of the test drug and was reared for a total of 28 days. Tests were performed for three groups of animals dosed with 0 ppm. 15 ppm. and 150 ppm., respectively, of carriomycin.

[2] = Acute oral toxicity (LD50); format: in vivo, mouse; conditions: for LD50: mouse, oral
Excerpt: (C) Carriomycin is extremely low in toxicity to animals.

[3] = test system: Treponema hyodysenteriae; test: Minimum inhibitory concentration against Treponema hyodysenteriae (agar dilution); format: cell-based; conditions: 10^6 CFU/ml. loopful, 37° C., 2 days; for MIC: Brachyspira hyodysenteriae, 48 h
Description: (1)Strains: These strains belong to Treponema hyodysenteriae isolated fro
the bloody mucous faeces of dysenteric pigs; MK 1, MK 2 and MK 4 were
obtained in Kyushu District of Japan while OX 1 was obtained in Okinawa,
(2)Antimicrobial potency assay: Agar Dilution Method
(3) Inoculum size: a loopful of 10^6 CFU/ml.
(4)Cultural conditions: Gas Pak (BBL) method, 37° C., 2 days

[4] = Absorption from the digestive tract and residue in the animal body; conditions: in words

## COC1CCC(OC2C(C)C(CC3CC(OC)C(C)C4(O3)OC(C)(C3CCC(C5CCC(C6OC(C)(O)C(C)CC6C)O5)O3)C(OC)C4C)OC(O)(C(C)C(=O)O)C2C)OC1C (stereo not drawn) [Carriomycin, carriomycin]
[1]; group B, 15 ppm. in feed
  Mean body weight at end of test: 29.1 kg./head
  Mean feed conversion ratio: 2.5
  Mean feed intake: 36.5 kg./head
  Mean number of days with bloody mucous faeces: 0.5 days/head
  Mean number of days with diarrhea: 3.0 days/head
  Mean weight gain: 14.6 kg./head
[1]; group C, 150 ppm. in feed
  Mean body weight at end of test: 31.7 kg./head
  Mean feed conversion ratio: 2.3
  Mean feed intake: 37.3 kg./head
  Mean number of days with bloody mucous faeces: 0.1 days/head
  Mean number of days with diarrhea: 1.5 days/head
  Mean weight gain: 16.2 kg./head
[1]; in words, from Table 2
  body weight gain: considerable increases
  feed conversion ratio, number of days with diarrhea and number of days with bloody mucous faeces: considerable improvements
[2]; in words
  toxicity to animals: extremely low
[2]
  LD50: about 2,000 mg./kg.
[3]; strain MK 1
  Minimum inhibitory concentration (MIC): 0.1 µg/mL (≈ 0.113 µM)
[3]; strain MK 2
  Minimum inhibitory concentration (MIC): 0.1 µg/mL (≈ 0.113 µM)
[3]; strain MK 4
  Minimum inhibitory concentration (MIC): 0.1 µg/mL (≈ 0.113 µM)
[3]; strain OX 1
  Minimum inhibitory concentration (MIC): 0.1 µg/mL (≈ 0.113 µM)
[4]
  absorption from the digestive tract: sparingly absorbed
  residue in the animal body: substantially no residue

## CCC(C(=O)C(C)C(O)C(C)CCc1ccc(C)c(O)c1C(=O)O)C1OC(CC)(C2CCC(O)(CC)C(C)O2)CC1C (stereo not drawn) [Lasalocid A]
[2]; in vivo, read-out: LD50
  LD50: 146 mg/kg
[3]; strain MK 1
  MIC: 10 µg/mL (≈ 16.9 µM)
[3]; strain MK 2
  MIC: 10 µg/mL (≈ 16.9 µM)
[3]; strain MK 4
  MIC: 10 µg/mL (≈ 16.9 µM)
[3]; strain OX 1
  MIC: 10 µg/mL (≈ 16.9 µM)

## CC[C@@]1([C@@H]2O[C@@H]([C@H]3O[C@@](O)(CO)[C@H](C)C[C@@H]3C)C[C@@H]2C)CC[C@H]([C@]2(C)CC[C@]3(C[C@H](O)[C@@H](C)[C@@H]([C@@H](C)[C@@H](OC)[C@H](C)C(=O)O)O3)O2)O1 [Monensin]
[3]; strain MK 1
  MIC: 1 µg/mL (≈ 1.49 µM)
[3]; strain MK 2
  MIC: 1 µg/mL (≈ 1.49 µM)
[3]; strain MK 4
  MIC: 1 µg/mL (≈ 1.49 µM)
[3]; strain OX 1
  MIC: 1 µg/mL (≈ 1.49 µM)

## CC[C@@H](C(=O)[C@@H](C)[C@@H](O)[C@H](C)[C@@H]1O[C@@H]([C@@H](CC)C(=O)O)CC[C@@H]1C)[C@H]1O[C@]2(C=C[C@@H](O)[C@]3(CC[C@@](C)([C@H]4CC[C@](O)(CC)[C@H](C)O4)O3)O2)[C@H](C)C[C@@H]1C [Salinomycin, salinomycin]
[2]; in vivo, read-out: LD50
  LD50: 50 mg/kg
[3]; strain MK 1
  MIC: 1 µg/mL (≈ 1.33 µM)
[3]; strain MK 2
  MIC: 1 µg/mL (≈ 1.33 µM)
[3]; strain MK 4
  MIC: 0.1 µg/mL (≈ 0.133 µM)
[3]; strain OX 1
  MIC: 1 µg/mL (≈ 1.33 µM)
